Measurements from US9334246B2, “Substituted triazines for malaria treatment and chemoprophylaxis” (The United States of America, as represented by the …, priority 2013, dated 2016).

Tests used:
Type in all cases: cell-based, Plasmodium falciparum
[1] = test system: P. falciparum C235; assay: Malaria SYBR Green Fluorescence Assay, C235 strain; settings: for C235: SYBR Green Assay
[2] = test system: P. falciparum W2; assay: Malaria SYBR Green Fluorescence Assay, W2 strain; settings: for W2: SYBR Green Assay
[3] = test system: P. falciparum D6; assay: Malaria SYBR Green Fluorescence Assay, D6 strain; settings: for D6: SYBR Green Assay

In the case of ClC(Cl)(Cl)c1nc(NCc2ccccn2)nc(-c2ccc(-c3ccccc3)cc2)n1 [Cmpd 250], the C235 [1] is reported as 858 ng/mL and the W2 [2] is reported as 721 ng/mL.
Compound Cc1ccc(-c2ccccc2-c2nc(N3CCCNCC3)nc(C(Cl)(Cl)Cl)n2)cc1 [Cmpd 263] has a C235 [1] of 763 ng/mL and a W2 [2] of 960 ng/mL.
With COc1ccc(-c2nc(NC3CCN(C)CC3)nc(C(Cl)(Cl)Cl)n2)cc1 [Cmpd 275] the C235 [1] was 699 ng/mL and the W2 [2] was 618 ng/mL.
Compound COc1ccccc1Cc1nc(N2CCCN(C)CC2)nc(C(Cl)(Cl)Cl)n1 [Cmpd 289] has a W2 [2] of 311 ng/mL and a D6 [3] of 810 ng/mL.
For CCN1CCC(CNc2nc(Nc3cccnc3OC)nc(C(Cl)(Cl)Cl)n2)CC1 [Cmpd 352], the “W2 (SYBR Green Assay IC50)” value [2] was 0.6372 µg/mL and the “D6 (SYBR Green Assay IC50)” value [3] was 0.7908 µg/mL.
With CN1CCCC1CCNc1nc(-c2ccc(N3CCCC3)cc2)nc(C(Cl)(Cl)Cl)n1 (stereo not shown) [Cmpd 370] the “D6 (SYBR Green Assay IC50)” value [3] was 0.846 µg/mL.
COc1ccc(-c2nc(N3CCCN(C)CC3)nc(C(Cl)(Cl)Cl)n2)cc1OC [Cmpd 398] was tested, and the “W2 (SYBR Green Assay IC50)” value [2] was 0.638 µg/mL.
For COc1ccc(-c2nc(NC3CCN(C)CC3)nc(C(Cl)(Cl)Cl)n2)cc1OC [Cmpd 399], the “W2 (SYBR Green Assay IC50)” value [2] was 0.705 µg/mL.
With Cc1ccc(-c2nc(N3CCN(CCO)CC3)nc(C(Cl)(Cl)Cl)n2)cc1 [Cmpd 416] the “W2 (SYBR Green Assay IC50)” value [2] was 0.381 µg/mL.
For OCCN1CCCN(c2nc(-c3ccc(N4CCCC4)cc3)nc(C(Cl)(Cl)Cl)n2)CC1 [Cmpd 465], the “C235 (SYBR Green Assay IC50)” value [1] was 0.498 µg/mL and the “W2 (SYBR Green Assay IC50)” value [2] was 0.222 µg/mL.
In the case of Clc1ccc(-c2nc(NCCc3cnccn3)nc(C(Cl)(Cl)Cl)n2)cc1Cl [Cmpd 470], the “C235 (SYBR Green Assay IC50)” value [1] is reported as 0.258 µg/mL and the “W2 (SYBR Green Assay IC50)” value [2] is reported as 0.07 µg/mL.
For Clc1cc(Cl)cc(-c2nc(NCCc3cnccn3)nc(C(Cl)(Cl)Cl)n2)c1 [Cmpd 471], the “W2 (SYBR Green Assay IC50)” value [2] was 0.174 µg/mL.
For CSc1ccc(-c2nc(NCCc3cnccn3)nc(C(Cl)(Cl)Cl)n2)cc1 [Cmpd 543], the “W2 (SYBR Green Assay IC50)” value [2] was 0.669 µg/mL.
With COc1ccc(-c2nc(NCCc3cnccn3)nc(C(Cl)(Cl)Cl)n2)c2ccccc12 [Cmpd 546] the “C235 (SYBR Green Assay IC50)” value [1] was 0.701 µg/mL and the “W2 (SYBR Green Assay IC50)” value [2] was 0.361 µg/mL.
In the case of CN(C)C1CCC(Nc2nc(-c3ccc(C(Cl)(Cl)Cl)cc3)nc(C(Cl)(Cl)Cl)n2)CC1 (stereo not shown) [Cmpd 597], the “W2 (SYBR Green Assay IC50)” value [2] is reported as 0.882 µg/mL.
In the case of ClC(Cl)(Cl)c1ccc(C(Cl)(Cl)Cl)cc1.FC(F)(F)c1cccc(-c2nc(NCCCN3CCCC3)nc(C(Cl)(Cl)Cl)n2)c1 [Cmpd 602], the “W2 (SYBR Green Assay IC50)” value [2] is reported as 0.853 µg/mL.
For CS(=O)(=O)c1ccc(-c2nc(NCc3ccncc3)nc(C(Cl)(Cl)Cl)n2)cc1 [Compound 650, CS(═O)(═O)c1ccc(cc1)c2nc(NCc3ccncc3)nc(n2)C(Cl)(Cl)Cl], the “W2 (SYBR Green Assay IC50)” value [2] was 0.803 µg/mL.
COc1ncccc1Nc1nc(-c2ccc(S(C)(=O)=O)cc2)nc(C(Cl)(Cl)Cl)n1 [Compound 651, COc1ncccc1Nc2nc(nc(n2)C(Cl)(Cl)Cl)c3ccc(cc3)S(═O)(═O)C] was tested, and the “W2 (SYBR Green Assay IC50)” value [2] was 0.577 µg/mL and the “D6 (SYBR Green Assay IC50)” value [3] was 0.76 µg/mL.
For NC1(CNc2nc(-c3cccc(C(F)(F)F)c3)nc(C(Cl)(Cl)Cl)n2)CCCCC1 [Compound 663, NC1(CNC2═NC(═NC(═N2)C2═CC(═CC═C2)C(F)(F)F)C(Cl)(Cl)Cl)CCCCC1], the W2 [2] was 583 ng/mL and the D6 [3] was 729 ng/mL.
For NC1(CNc2nc(-c3ccccc3)nc(C(Cl)(Cl)Cl)n2)CC1 [Compound 677, NC1(CNC2═NC(═NC(═N2)C2═CC═CC═C2)C(Cl)(Cl)Cl)CC1], the C235 [1] was 910 ng/mL and the W2 [2] was 527 ng/mL.
Compound NC1(CNc2nc(-c3ccc(C(Cl)(Cl)Cl)cc3)nc(C(Cl)(Cl)Cl)n2)CC1 [Compound 679, NC1(CNC2═NC(═NC(═N2)C2═CC═C(C═C2)C(Cl)(Cl)Cl)C(Cl)(Cl)Cl)CC1] has a W2 [2] of 201 ng/mL and a D6 [3] of 606 ng/mL.
Compound CC(C)(C)OC(=O)N1CC2CC1CN2c1nc(-c2ccc(Cl)c(Cl)c2)nc(C(Cl)(Cl)Cl)n1 (stereo not shown) [Compound 705, CC(C)(C)OC(═O)N1CC2CC1CN2c3nc(nc(n3)C(Cl)(Cl)Cl)c4ccc(Cl)c(Cl)c4] has a W2 [2] of 851.8 ng/mL.
Cc1ccc(-c2nc(N3CC4CC3CN4C(=O)OC(C)(C)C)nc(C(Cl)(Cl)Cl)n2)cc1 (stereo not shown) [Compound 711, Cc1ccc(cc1)c2nc(nc(n2)C(Cl)(Cl)Cl)N3CC4CC3CN4C(═O)OC(C)(C)C] was tested, and the D6 [3] was 812 ng/mL.
CC(C)(C)c1ccc(-c2nc(N3CCOCC3)nc(C(Cl)(Cl)Cl)n2)cc1 [Compound 734, CC(C)(C)c1ccc(cc1)c2nc(nc(n2)C(Cl)(Cl)C1)N3CCOCC3] showed a W2 [2] of 834 ng/mL.
In the case of “CC(C)(C)c1ccc(cc1)c2nc(nc(n2)C(Cl)(Cl)Cl)N3CCCN(CCO)CC3 [Compound 738]”, the C235 [1] is reported as 239.9 ng/mL and the W2 [2] is reported as 60.48 ng/mL.
In the case of “CCN(CC)CCCC(C)Nc1nc(Nc2ccc(Cl)c(Cl)c2)nc(n1)C(Cl)(Cl)Cl [Compound 646]”, the “W2 (SYBR Green Assay IC50)” value [2] is reported as 0.7354 µg/mL and the “D6 (SYBR Green Assay IC50)” value [3] is reported as 0.6727 µg/mL.
Compound “CN(CCc1ccccn1)c2nc(nc(n2)C(Cl)(Cl)Cl)c3ccc(cc3)C(C)(C)C [Compound 736]” has a W2 [2] of 445.4 ng/mL.
In the case of “CN(Cc1ccccc1c2cccnc2)c3nc(nc(n3)C(Cl)(Cl)Cl)c4ccc(cc4)C(Cl)(Cl)Cl [Compound 653]”, the W2 [2] is reported as 272.1 ng/mL.
For “CS(═O)(═O)c1ccc(cc1)c2nc(nc(n2)C(Cl)(Cl)Cl)N3CCC(CC3)C(═O)N [Compound 690]”, the W2 [2] was 670 ng/mL.
